Results on 6 compounds are retold here after ChEMBL document CHEMBL1129595, “Potent 6-desfluoro-8-methylquinolones as new lead compounds in antibacterial chemotherapy” (J Med Chem, 1996).

Molecules are shown by their SMILES. In brackets after ≈: the same amount, converted by molar mass.

Assay [1] deals with Enterococcus faecalis. Nature of the assay: In vitro antibacterial activity against Enterococcus faecalis LEP Br. The format is functional.
The test system of assay [2] is Enterococcus faecalis. Nature of the assay: In vitro antibacterial activity against Enterococcus faecalis UCMC 39690. The format is functional.
Assay [3] deals with Enterobacter cloacae. Put plainly: In vitro antibacterial activity against Enterobacter cloacae OMNFI 174. Type of assay: functional.
Assay [4] relates to Escherichia coli. Put plainly: In vitro antibacterial activity against Escherichia coli 120. The format is functional.
Assay [5] has as its system Escherichia coli. Put plainly: In vitro antibacterial activity against Escherichia coli ATCC 25922. Type of assay: functional.
The subject of assay [6] is Haemophilus influenzae. Put plainly: In vitro antibacterial activity against Haemophilus influenzae. Type of assay: functional.
Assay [7] has as its system Klebsiella pneumoniae. Nature of the assay: In vitro antibacterial activity against Klebsiella pneumoniae ATCC 10031. Type of assay: functional.
Assay [8] relates to Proteus mirabilis. Put plainly: In vitro antibacterial activity against Proteus mirabilis OBT 505. Type of assay: functional.
Assay [9] has as its system Pseudomonas aeruginosa. Put plainly: In vitro antibacterial activity against Pseudomonas aeruginosa OBT 307. The format is functional.
Assay [10] relates to Proteus vulgaris. Put plainly: In vitro antibacterial activity against Proteus vulgaris CNUR 6. The format is functional.
Assay [11] relates to Staphylococcus aureus. Put plainly: In vitro antibacterial activity against Staphylococcus aureus ATCC 29213. Type of assay: functional.
The subject of assay [12] is Staphylococcus aureus. Nature of the assay: In vitro antibacterial activity against Staphylococcus aureus M-R POMM 6214. The format is functional.
For assay [13], the system named is Staphylococcus aureus. Put plainly: In vitro antibacterial activity against Staphylococcus aureus MPR 5. Type of assay: functional.
Assay [14] relates to Staphylococcus aureus. Nature of the assay: In vitro antibacterial activity against Staphylococcus aureus CPX-R OBT 687. The format is functional.
Assay [15] concerns Streptococcus pneumoniae. Put plainly: In vitro antibacterial activity against Streptococcus pneumoniae I 0.43. Type of assay: functional.
Assay [16] concerns Streptococcus pyogenes. Nature of the assay: In vitro antibacterial activity against Streptococcus pyogenes OMNFI BI. Type of assay: functional.
Assay [17] deals with Escherichia coli. Put plainly: In vitro antibacterial activity against Escherichia coliCPX-R OBT 431. Type of assay: functional.
For assay [18], the system named is Pseudomonas aeruginosa. Nature of the assay: In vitro antibacterial activity against Pseudomonas aeruginosa […] 9027. The format is functional.
For assay [19], the target named is DNA gyrase (Escherichia coli, UniProt P0AES4+P0AES6). Put plainly: Inhibitory effect against Escherichia coli Gyrase in Supercoiling assay. The format is protein-complex assay.
Assay [20] in a line: Mean MIC against gram positive. Type of assay: functional.

As to `Cc1c(N2CCSCC2)ccc2c(=O)c(C(=O)O)cn(C3CC3)c12`, the MIC is 1 µg/mL (≈ 2.9 µM) in assay [1]; 0.5 µg/mL (≈ 1.45 µM) in [2]; 1 µg/mL (≈ 2.9 µM) in [3]; 0.25 µg/mL (≈ 0.726 µM) in assay [4]; 0.125 µg/mL (≈ 0.363 µM) in assay [5]; below 0.016 µg/mL in assay [6]. The MIC is below 0.016 µg/mL in assay [7]; 4 µg/mL (≈ 11.6 µM) in assay [8]; 16 µg/mL (≈ 46.5 µM) in assay [9]; 16 µg/mL (≈ 46.5 µM) in assay [10]; above 0.016 µg/mL in [11]; above 0.016 µg/mL in assay [12]. The MIC in assay [13] is above 0.016 µg/mL; in assay [14], 2 µg/mL (≈ 5.81 µM); in [15], 1 µg/mL (≈ 2.9 µM); in assay [16], 0.5 µg/mL (≈ 1.45 µM); in assay [17], above 16 µg/mL; in assay [18], 4 µg/mL (≈ 11.6 µM).
For the compound `Cc1c(N2CC(C)OC(C)C2)ccc2c(=O)c(C(=O)O)cn(C3CC3)c12` (stereo unspecified), the MIC was 1 µg/mL (≈ 2.81 µM) in [1]; 0.25 µg/mL (≈ 0.701 µM) in assay [2]; 2 µg/mL (≈ 5.61 µM) in assay [3]; 0.5 µg/mL (≈ 1.4 µM) in [4]; 1 µg/mL (≈ 2.81 µM) in assay [5]; 1 µg/mL (≈ 2.81 µM) in [6]. Moreover, the MIC in assay [7] is 0.125 µg/mL (≈ 0.351 µM); in assay [8] it was 16 µg/mL (≈ 44.9 µM); in assay [9] it was 16 µg/mL (≈ 44.9 µM); in assay [10], above 16 µg/mL; in assay [11] it was 0.125 µg/mL (≈ 0.351 µM); in assay [12] it was 0.03 µg/mL (≈ 0.0842 µM). The MIC in assay [13] was below 0.016 µg/mL; in [14], 1 µg/mL (≈ 2.81 µM); in [15], 0.5 µg/mL (≈ 1.4 µM); in assay [16] it was 0.5 µg/mL (≈ 1.4 µM); in assay [17], above 16 µg/mL; in assay [18], 16 µg/mL (≈ 44.9 µM).
Consider `Cc1c(N2CCC(O)CC2)ccc2c(=O)c(C(=O)O)cn(C3CC3)c12`, for which the MIC in assay [1] was determined as 0.5 µg/mL (≈ 1.46 µM); in assay [2], 0.125 µg/mL (≈ 0.365 µM); in assay [3] it was 0.25 µg/mL (≈ 0.73 µM); in assay [4] it was 0.06 µg/mL (≈ 0.175 µM); in assay [5], 0.06 µg/mL (≈ 0.175 µM); in assay [6], 0.25 µg/mL (≈ 0.73 µM). Moreover, the MIC in assay [7] was below 0.016 µg/mL; in [8] it was 2 µg/mL (≈ 5.84 µM); in assay [9] it was 16 µg/mL (≈ 46.7 µM); in assay [10], 8 µg/mL (≈ 23.4 µM); in [11], below 0.016 µg/mL; in [12], below 0.016 µg/mL. In addition, the MIC in [13] was below 0.016 µg/mL; in [14] it was 0.5 µg/mL (≈ 1.46 µM); in assay [15], 0.25 µg/mL (≈ 0.73 µM); in assay [16], 2 µg/mL (≈ 5.84 µM); in assay [17], above 16 µg/mL; in assay [18], 2 µg/mL (≈ 5.84 µM).
With `Cc1c(N2CCC(C)CC2)ccc2c(=O)c(C(=O)O)cn(C3CC3)c12`, the MIC in assay [1] was 0.5 µg/mL (≈ 1.47 µM); in [2], 0.03 µg/mL (≈ 0.0881 µM); in [3], 0.25 µg/mL (≈ 0.734 µM); in assay [4], 0.06 µg/mL (≈ 0.176 µM); in assay [5] it was 0.03 µg/mL (≈ 0.0881 µM); in assay [6] it was below 0.016 µg/mL. The MIC in assay [7] was below 0.016 µg/mL; in [8] it was 2 µg/mL (≈ 5.88 µM); in assay [9] it was 8 µg/mL (≈ 23.5 µM); in assay [10], 4 µg/mL (≈ 11.8 µM); in assay [11], below 0.016 µg/mL; in assay [12] it was below 0.016 µg/mL. Besides, the MIC in [13] is below 0.016 µg/mL; in [14], 1 µg/mL (≈ 2.94 µM); in [15] it was 0.25 µg/mL (≈ 0.734 µM); in [16], 0.125 µg/mL (≈ 0.367 µM); in assay [17] it was above 16 µg/mL; in [18], 2 µg/mL (≈ 5.88 µM).
Consider `CC(=O)O.Cc1c(N2CC[C@@H](N)C2)ccc2c(=O)c(C(=O)O)cn(C3CC3)c12`, for which the MIC in [1] came to 0.5 µg/mL; in [2], 0.25 µg/mL; in assay [3], 0.25 µg/mL; in [4], 0.016 µg/mL; in assay [5], 0.03 µg/mL; in assay [6], 0.6 µg/mL. Also, the MIC turned out to be 0.016 µg/mL in assay [7]; 0.06 µg/mL in assay [8]; 0.5 µg/mL in assay [9]; 2 µg/mL in assay [10]; 0.125 µg/mL in [11]; 0.25 µg/mL in assay [12]. Moreover, the MIC was 0.125 µg/mL in assay [13]; 4 µg/mL in assay [14]; 0.25 µg/mL in [15]; 0.25 µg/mL in assay [16]; 16 µg/mL in assay [17]; 0.125 µg/mL in assay [18].
For orientation: IC50 means the concentration that inhibits the measured activity by half. The low end stands for greater potency in that assay, the high end for weaker potency in that assay. Regarding `Cc1c(N2CCN(C)CC2)ccc2c(=O)c(C(=O)O)cn(C3CC3)c12`, the MIC in assay [1] was 2 µg/mL (≈ 5.86 µM); in assay [2] it was 1 µg/mL (≈ 2.93 µM); in assay [3] it was 0.25 µg/mL (≈ 0.732 µM); in [4], 0.06 µg/mL (≈ 0.176 µM); in [5], 0.06 µg/mL (≈ 0.176 µM); in assay [6], 0.06 µg/mL (≈ 0.176 µM). In addition, the MIC in assay [7] was below 0.016 µg/mL; in assay [8], 2 µg/mL (≈ 5.86 µM); in assay [9], 16 µg/mL (≈ 46.9 µM); in [10], 8 µg/mL (≈ 23.4 µM); in assay [11], 0.25 µg/mL (≈ 0.732 µM); in assay [12], 0.5 µg/mL (≈ 1.46 µM). For the same compound, the MIC in assay [13] is 0.25 µg/mL (≈ 0.732 µM); in assay [14], 8 µg/mL (≈ 23.4 µM); in assay [15] it was 2 µg/mL (≈ 5.86 µM); in assay [16], 2 µg/mL (≈ 5.86 µM); in assay [20], 1.09 µg/mL (≈ 3.19 µM); in assay [17] it was above 16 µg/mL. The compound also yielded an MIC in assay [18] of 2 µg/mL (≈ 5.86 µM). For the same compound, inhibition in [19] was half-maximal at 83.5 µM (IC50). In addition, in assay [20], the “Mean MIC” value was found to be 0.609 µg/mL.
